In patent US8455658B2, “Thiazole and thiadiazole compounds for inflammation and immune-related uses” (Synta Pharmaceuticals Corp., priority 2006, dated 2013):
Counter-ions that a name gives are not always drawn.

Test system: IL-2 production
Assay: Inhibition of IL-2 production in PHA-activated Jurkat cells (ELISA)
Format: cell-based
Conditions: Homo sapiens, Jurkat, 20 h, PHA 2.5 μg/mL, IL-2 ELISA
Description: Jurkat cells were placed in a 96 well plate (0.5 million cells per well in 1% FBS medium) then a test compound of this invention was added at different concentrations. After 10 minutes, the cells were activated with PHA (final concentration 2.5 μg/mL) and incubated for 20 hours at 37° C. under CO2. The final volume was 200 μL. Following incubation, the cells were centrifuged and the supernatants collected and stored at −70° C. prior to assaying for IL-2 production. A commercial ELISA kit (IL-2 Eli-pair, Diaclone Research, Besancon, France) was used to detect production of IL-2, from which dose response curves were obtained.

| Compound | IC50 [µM] |
| --- | --- |
| Cc1nc(NC(=O)c2ccncc2F)sc1-c1cccc(C(F)(F)F)c1 [Compound 10, 3-Fluoro-N-[4-methyl-5-(3-trifluoromethyl-phenyl)-thiazol-2-yl]-isonicotinamide] | > 1 |
| Cc1ccc(-c2nccs2)cc1-c1ncc(C(=O)Nc2c(F)cccc2F)s1 [Compound 122, N-(2,6-difluorophenyl)-2-(2-methyl-5-(thiazol-2-yl)phenyl)thiazole-5-carboxamide] | 0.03 to 0.05 |
| Cn1cncc1-c1nc(NC(=O)c2c(F)cccc2F)sc1-c1cccc(C(F)(F)F)c1 [Compound 80, 2,6-Difluoro-N-(4-(1-methyl-1H-imidazol-5-yl)-5-(3-(trifluoromethyl)phenyl)thiazol-2-yl)benzamide] | > 1 |
| COc1ncc(Cl)cc1-c1ncc(C(=O)Nc2c(F)cccc2F)s1 [Compound 126, 2-(5-chloro-2-methoxypyridin-3-yl)-N-(2,6-difluorophenyl)thiazole-5-carboxamide] | > 1 |
| CON(C)C(=O)c1nc(NC(=O)c2c(F)cccc2F)sc1-c1cccc(C(F)(F)F)c1 [Compound 93, 2-(2,6-difluorobenzamido)-N-methoxy-N-methyl-5-(3-(trifluoromethyl)phenyl)thiazole-4-carboxamide] | > 1 |
| Cc1nc(C(=O)Nc2c(F)cccc2F)sc1-c1cccc(-c2nnco2)c1 [Compound 118, 5-(3-(1,3,4-oxadiazol-2-yl)phenyl)-N-(2,6-difluorophenyl)-4-methylthiazole-2-carboxamide] | 0.2 to 0.5 |
| C=C(C)c1nc(NC(=O)c2c(F)cccc2F)sc1-c1cccc(C(F)(F)F)c1 [Compound 68a, 2,6-difluoro-N-(4-(prop-1-en-2-yl)-5-(3-(trifluoromethyl)phenyl)thiazol-2-yl)benzamide] | 0.05 to 0.1 |
| O=C(Nc1nc(-c2ncc[nH]2)c(-c2cccc(C(F)(F)F)c2)s1)c1c(F)cccc1F [Compound 78, N-(4-(1H-Imidazol-2-yl)-5-(3-(trifluoromethyl)phenyl)thiazol-2-yl)-2,6-difluorobenzamide hydrochloride] | > 1 |
| COc1ccc(OC)c(-c2cnc(NC(=O)c3c(F)cccc3F)s2)c1 [Compound 3, N-[5-(2,5-Dimethoxy-phenyl)-thiazol-2-yl]-2,6-difluoro-benzamide] | 0.1 to 0.2 |
| Cc1nc(-c2nc(NC(=O)c3c(F)cccc3F)sc2-c2cccc(C(F)(F)F)c2)cs1 [Compound 86, 2,6-Difluoro-N-(2′-methyl-5-(3-(trifluoromethyl)phenyl)-4,4′-bithiazol-2-yl)benzamide] | 0.2 to 0.5 |
| O=C(Nc1nc(C(O)c2ccccn2)c(-c2cccc(C(F)(F)F)c2)s1)c1c(F)cccc1F (stereo not shown) [Compound 83, 2,6-difluoro-N-(4-(hydroxy(pyridin-2-yl)methyl)-5-(3-(trifluoromethyl)phenyl)thiazol-2-yl)benzamide] | > 1 |
| Cc1nc(NC(=O)c2c(F)cccc2F)sc1-c1ccc(Br)s1 [Compound 59, N-(5-(5-Bromothiophen-2-yl)-4-methylthiazol-2-yl)-2,6-difluorobenzamide] | 0.1 to 0.2 |
| C=CCOc1ccc(C(F)(F)F)cc1-c1sc(NC(=O)c2c(F)cccc2F)nc1C(=C)C [Compound 64, N-(5-(2-(Allyloxy)-5-(trifluoromethyl)phenyl)-4-(prop-1-en-2-yl)thiazol-2-yl)-2,6-difluorobenzamide] | > 1 |
| O=C(Nc1nc(-c2cnco2)c(-c2cccc(C(F)(F)F)c2)s1)c1c(F)cccc1F [Compound 76, 2,6-Difluoro-N-(4-(oxazol-5-yl)-5-(3-(trifluoromethyl)phenyl)thiazol-2-yl)benzamide] | 0.05 to 0.1 |
| CC(O)c1nc(NC(=O)c2c(F)cccc2F)sc1-c1cccc(C(F)(F)F)c1 (stereo not shown) [Compound 74, 2,6-Difluoro-N-(4-(1-hydroxyethyl)-5-(3-(trifluoromethyl)phenyl)thiazol-2-yl)benzamide] | > 1 |
| COc1ccc(OC)c(-c2sc(NC(=O)c3c(F)cccc3F)nc2C)c1 [Compound 55, N-(5-(2,5-Dimethoxyphenyl)-4-methylthiazol-2-yl)-2,6-difluorobenzamide] | 0.2 to 0.5 |
| Cc1ccc(-c2ncco2)cc1-c1ncc(C(=O)Nc2c(F)cccc2F)s1 [Compound 121, N-(2,6-difluorophenyl)-2-(2-methyl-5-(oxazol-2-yl)phenyl)thiazole-5-carboxamide] | 0.1 to 0.2 |
| Cc1nc(NC(=O)c2c(F)cccc2F)sc1-c1cccc(C(F)(F)F)c1 [Compound 9, 2,6-Difluoro-N-[4-methyl-5-(3-trifluoromethyl-phenyl)-thiazol-2-yl]-benzamide] | 0.03 to 0.05 |
| O=C(Nc1nc(-c2ccccn2)c(-c2cccc(C(F)(F)F)c2)s1)c1c(F)cccc1F [Compound 107, 2,6-Difluoro-N-(4-(pyridin-2-yl)-5-(3-(trifluoromethyl)phenyl)thiazol-2-yl)benzamide] | < 0.03 |
| Cc1nc(C(=O)Nc2c(F)cccc2F)sc1-c1cc(C(F)(F)F)ccc1Cl [Compound 119, 5-(2-chloro-5-(trifluoromethyl)phenyl)-N-(2,6-difluorophenyl)-4-methylthiazole-2-carboxamide] | 0.2 to 0.5 |
| Cc1nc(NC(=O)c2c(F)cccc2F)sc1-c1cc(Br)c2c(c1)OCO2 [Compound 56, N-(5-(7-Bromobenzo[d][1,3]dioxol-5-yl)-4-methylthiazol-2-yl)-2,6-difluorobenzamide] | 0.2 to 0.5 |
| CCOC(=O)c1nc(-c2sc(NC(=O)c3c(F)cccc3F)nc2C)cs1 [Compound 114a, Ethyl 2′-(2,6-difluorobenzamido)-4′-methyl-4,5′-bithiazole-2-carboxylate] | > 1 |
| C=CCOc1ccc(C(F)(F)F)cc1-c1sc(NC(=O)c2c(F)cccc2F)nc1C(=O)OC [Compound 63, Methyl 5-(2-(allyloxy)-5-(trifluoromethyl)phenyl)-2-(2,6-difluorobenzamido)thiazole-4-carboxylate] | > 1 |
| N#Cc1cccc(-c2cnc(NC(=O)c3c(F)cccc3F)s2)c1 [Compound 6, N-[5-(3-Cyano-phenyl)-thiazol-2-yl]-2,6-difluoro-benzamide] | > 1 |
| Cc1nnsc1C(=O)Nc1nc(C)c(-c2cccc(C(F)(F)F)c2)s1 [Compound 12, 4-Methyl-[1,2,3]thiadiazole-5-carboxylic acid [4-methyl-5-(3-trifluoromethyl-phenyl)-thiazol-2-yl]-amide] | > 1 |
| Cc1nc(-c2nc(NC(=O)c3c(F)cccc3F)sc2-c2cccc(C(F)(F)F)c2)c(C)s1 [Compound 95, N-(2′,5′-dimethyl-5-(3-(trifluoromethyl)phenyl)-4,4′-bithiazol-2-yl)-2,6-difluorobenzamide] | > 1 |
| Cc1nc(-c2sc(NC(=O)c3c(F)cccc3F)nc2C)cs1 [Compound 114b, N-(2,4′-Dimethyl-4,5′-bithiazol-2′-yl)-2,6-difluorobenzamide] | > 1 |
| Cc1nc(NC(=O)c2c(F)cccc2F)sc1-c1ccsc1 [Compound 62, 2,6-Difluoro-N-(4-methyl-5-(thiophen-3-yl)thiazol-2-yl)benzamide] | > 1 |
